Data from patent US6623914B2, “Method for preparing an acid salt of p-phenylenediamine-type photographic color developers” (Eastman Chemical Company, priority 2001, dated 2003).

Assay: Solubility (saturation concentration) of color developer free base in solvents at ambient temperature
Conditions: ambient temperatures; liquid free base; stated, saturation concentration not evaluated
Method: To define the free base solution product compositions, the solubility of the free base form of color developers N-ethyl-N-(2-methanesulfonylaminoethyl)-2-methyl-p-phenylenediamine and N-ethyl-N-(2-hydroxyethyl)-2-methyl-p-phenylenediamine was determined in a number of potential solvents at ambient temperature, nominally 24° C.
A small quantity, about 3 weight % relative to the weight of the solvent, of N,N-diethylhydroxylamine (DEHA) was added as a preservative to each determination. Excess color developer free base identified above was added to each solvent and saturation was achieved by mixing for several hours at room temperature.

## CCN(CC)c1ccc(N)cc1C [N,N-diethyl-2-methyl-p-phenylenediamine]
  Miscibility with the water-soluble, water-miscible, hydroxy-containing solvent candidates: fully miscible
